Earlier results as cited in paper PMC3865603 (Cancer chemotherapy and pharmacology, 2011).

Legend:
tubulin in PBMCs = settings: ixabepilone RP2D 40 mg/m^2, 1 h after infusion, n = 27; cited from earlier work
patients = settings: cited from earlier work
[1] = cited from earlier work

Compound | mean MBF (tubulin in PBMCs) | DLTs (patients) | in vivo activity relative to other epothilones [1] | neurotoxicity in phase II trials (patients)
C/C(=C\c1csc(C)n1)[C@@H]1C[C@@H]2O[C@]2(C)CCC[C@H](C)[C@H](O)[C@@H](C)C(=O)C(C)(C)[C@@H](O)CC(=O)N1 [Ixabepilone, ixabepilone] | 63% | neutropenia, neuropathy, and abdominal pain/nausea | – | –
C/C1=C/C[C@@H](/C(C)=C/c2csc(C)n2)OC(=O)C[C@H](O)C(C)(C)C(=O)[C@H](C)[C@@H](O)[C@@H](C)CCC1 [KOS-862, Desoxyepothilone B] | – | – | greater activity compared with ixabepilone and patupilone | significant neurotoxicity
C/C(=C\c1csc(C)n1)[C@@H]1C[C@@H]2O[C@]2(C)CCC[C@H](C)[C@H](O)[C@@H](C)C(=O)C(C)(C)[C@@H](O)CC(=O)O1 [patupilone] | – | diarrhea, peripheral neuropathy, and fatigue | – | –
C=CC[C@H]1C(=O)C(C)(C)[C@@H](O)CC(=O)O[C@H](c2ccc3sc(C)nc3c2)C[C@@H]2O[C@]2(C)CCC[C@H](C)[C@@H]1O [sagopilone] | – | peripheral neuropathy, infection, hyponatremia, diarrhea, and central ataxia | – | –
